Where two headings read alike, the source gives them in different places.
Tests used:
Assay type in all cases: in vivo
[1] = system: Brazilian crabgrass (Digitaria horizontalis); assay: Test F pre-/postemergence plant response; details: Digitaria horizontalis, scale 0 to 100, read-out: Plant response rating, Crabgrass, Brazil
Procedure, shortened: (§1)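 Visual control ratings were scored 0 (no effect) to 100 (complete control) versus untreated plants after 14–21 greenhouse days. Compounds, formulated in a surfactant-containing non-phytotoxic solvent, were applied both to silt loam at planting (preemergence) and to 1- to 4-leaf plants 2–18 cm tall (postemergence).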

[2] = system: Italian ryegrass (Lolium multiflorum); assay: Test F pre-/postemergence plant response; details: Lolium multiflorum, scale 0 to 100, read-out: Plant response rating, Ryegrass, Italian; for pest or weed control at 16 g/ha: 16 g ai/ha; for pest or weed control at 31 g/ha: 31 g ai/ha; for pest or weed control at 125 g/ha: 125 g ai/ha
Procedure, shortened: as §1

[3] = system: barnyardgrass (Echinochloa crus-galli); assay: Test F pre-/postemergence plant response; details: Echinochloa crus-galli, scale 0 to 100, read-out: Plant response rating, Barnyardgrass
Procedure, shortened: as §1

[4] = system: dayflower (Virginia (VA) dayflower, Commelina virginica); assay: Test F pre-/postemergence plant response; details: Commelina virginica, scale 0 to 100, read-out: Plant response rating, Dayflower, VA
Procedure, shortened: as §1

[5] = system: giant foxtail (Setaria faberii); assay: Test F pre-/postemergence plant response; details: Setaria faberi, pre-emergence, scale 0 to 100, read-out: Plant response rating, Foxtail, Giant
Procedure, shortened: as §1

[6] = system: lambsquarters (Chenopodium album); assay: Test F pre-/postemergence plant response; details: Chenopodium album, pre-emergence, Preemergence, scale 0 to 100, read-out: Plant response rating, Lambsquarters
Procedure, shortened: as §1

[7] = system: large (Lg) crabgrass (Digitaria sanguinalis); assay: Test F pre-/postemergence plant response; details: Digitaria sanguinalis, pre-emergence, scale 0 to 100, read-out: Plant response rating, Crabgrass, Large
Procedure, shortened: as §1

[8] = system: morningglory (Ipomoea coccinea); assay: Test F pre-/postemergence plant response; details: Ipomoea, pre-emergence, scale 0 to 100, read-out: Plant response rating, Morningglory
Procedure, shortened: as §1

[9] = system: sandbur (southern sandbur, Cenchrus echinatus); assay: Test F pre-/postemergence plant response; details: Cenchrus echinatus, scale 0 to 100, read-out: Plant response rating, Sandbur
Procedure, shortened: as §1

[10] = system: soybean (Glycine max); assay: Test F pre-/postemergence plant response; details: Glycine max, scale 0 to 100, read-out: Plant response rating, Soybean
Procedure, shortened: as §1

[11] = system: surinam grass (Brachiaria decumbens); assay: Test F pre-/postemergence plant response; details: Urochloa decumbens, pre-emergence, scale 0 to 100, read-out: Plant response rating, Surinam Grass
Procedure, shortened: as §1

[12] = system: waterhemp_RES1 (ALS & Triazine resistant common waterhemp, Amaranthus rudis); assay: Test F postemergence plant response; details: scale 0 to 100
Procedure, shortened: (§2)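 Rated visually versus controls, 0 (no effect) to 100 (complete control), after 14–21 days in greenhouse. Compounds were sprayed postemergence on seedlings at 1- to 4-leaf stage, 2–18 cm tall.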

[13] = system: waterhemp_RES2 (ALS & HPPD resistant common waterhemp, Amaranthus rudis); assay: Test F postemergence plant response; details: scale 0 to 100
Procedure, shortened: as §2

[14] = post-emergence, 16 g ai/ha Postemergence
[15] = post-emergence, 31 g ai/ha Postemergence
[16] = post-emergence, 62 g ai/ha Postemergence
[17] = post-emergence, 125 g ai/ha Postemergence
[18] = pre-emergence, 16 g ai/ha Preemergence
[19] = pre-emergence, 31 g ai/ha Preemergence
[20] = pre-emergence, 62 g ai/ha Preemergence
[21] = pre-emergence, 125 g ai/ha Preemergence

In the case of `Fc1cccc(Oc2ncc(Cl)cn2)c1-c1cc(C(F)F)no1` [Compound 144, 5-chloro-2-[2-[3-(difluoromethyl)-5-isoxazolyl]-3-fluorophenoxy]pyrimidine], the pest or weed control at 16 g/ha [1, 14] is reported as 40%, the pest or weed control at 31 g/ha [1, 15] is reported as 50% and the pest or weed control at 62 g/ha [1, 16] is reported as 40%. The pest or weed control at 125 g/ha [1, 17] was 55%, the pest or weed control at 16 g/ha [1, 18] was 75% and the pest or weed control at 31 g/ha [1, 19] was 95%. It also gave a pest or weed control at 62 g/ha [1, 20] of 98%, a pest or weed control at 125 g/ha [1, 21] of 100% and a pest or weed control at 16 g/ha ([2]; post-emergence, Postemergence) of 10%. For the same molecule, the pest or weed control at 31 g/ha ([2]; post-emergence, Postemergence) was 20%, the pest or weed control at 62 g/ha ([2]; post-emergence, 62 g ai/ha, Postemergence) was 20% and the pest or weed control at 125 g/ha ([2]; post-emergence, Postemergence) was 40%. For the same molecule, the pest or weed control at 16 g/ha ([2]; pre-emergence, Preemergence) was 0%, the pest or weed control at 31 g/ha ([2]; pre-emergence, Preemergence) was 0% and the pest or weed control at 125 g/ha ([2]; pre-emergence, Preemergence) was 100%. The pest or weed control at 62 g/ha ([2]; pre-emergence, Preemergence) was 40%, the pest or weed control at 16 g/ha [3, 14] was 10% and the pest or weed control at 31 g/ha [3, 15] was 30%. For the same molecule, the pest or weed control at 62 g/ha [3, 16] was 50%, the pest or weed control at 125 g/ha [3, 17] was 75% and the pest or weed control at 16 g/ha [3, 18] was 0%. It also gave a pest or weed control at 31 g/ha [3, 19] of 20%, a pest or weed control at 62 g/ha [3, 20] of 70% and a pest or weed control at 125 g/ha [3, 21] of 100%. It also gave a pest or weed control at 16 g/ha [4, 14] of 50%, a pest or weed control at 31 g/ha [4, 15] of 50% and a pest or weed control at 62 g/ha [4, 16] of 60%. The pest or weed control at 125 g/ha [4, 17] was 85%, the pest or weed control at 16 g/ha [4, 18] was 0% and the pest or weed control at 31 g/ha [4, 19] was 30%. The pest or weed control at 62 g/ha [4, 20] was 85%, the pest or weed control at 125 g/ha [4, 21] was 95% and the pest or weed control at 16 g/ha ([5]; 16 g ai/ha Preemergence) was 15%. It also gave a pest or weed control at 31 g/ha ([5]; 31 g ai/ha Preemergence) of 90%, a pest or weed control at 62 g/ha ([5]; 62 g ai/ha Preemergence) of 95% and a pest or weed control at 125 g/ha ([5]; 125 g ai/ha Preemergence) of 100%. It also gave a pest or weed control at 16 g/ha ([6]; 16 g ai/ha) of 100%, a pest or weed control at 31 g/ha ([6]; 31 g ai/ha) of 100% and a pest or weed control at 125 g/ha ([6]; 125 g ai/ha) of 100%. It also gave a pest or weed control at 62 g/ha [6] of 100%, a pest or weed control at 16 g/ha ([7]; 16 g ai/ha Preemergence) of 80% and a pest or weed control at 31 g/ha ([7]; 31 g ai/ha Preemergence) of 100%. The pest or weed control at 62 g/ha ([7]; 62 g ai/ha Preemergence) was 100%, the pest or weed control at 125 g/ha ([7]; 125 g ai/ha Preemergence) was 100% and the pest or weed control at 16 g/ha ([8]; 16 g ai/ha Preemergence) was 0%. It also gave a pest or weed control at 31 g/ha ([8]; 31 g ai/ha Preemergence) of 0%, a pest or weed control at 125 g/ha ([8]; 125 g ai/ha Preemergence) of 95% and a pest or weed control at 62 g/ha ([8]; Preemergence) of 65%. For the same molecule, the pest or weed control at 16 g/ha [9, 14] was 10%, the pest or weed control at 31 g/ha [9, 15] was 15% and the pest or weed control at 62 g/ha [9, 16] was 20%. For the same molecule, the pest or weed control at 125 g/ha [9, 17] was 20%, the pest or weed control at 16 g/ha [9, 18] was 0% and the pest or weed control at 31 g/ha [9, 19] was 10%. It also gave a pest or weed control at 125 g/ha [9, 21] of 95%, a pest or weed control at 62 g/ha ([9]; pre-emergence, Preemergence) of 50% and a plant injury at 16 g/ha [10, 14] of 65%. It also gave a plant injury at 31 g/ha [10, 15] of 95%, a plant injury at 62 g/ha [10, 16] of 98% and a plant injury at 125 g/ha [10, 17] of 95%. The plant injury at 31 g/ha [10, 19] was 10%, the plant injury at 125 g/ha [10, 21] was 75% and the plant injury at 62 g/ha ([10]; pre-emergence, Preemergence) was 40%. The pest or weed control at 16 g/ha ([11]; 16 g ai/ha Preemergence) was 0%, the pest or weed control at 31 g/ha ([11]; 31 g ai/ha Preemergence) was 75% and the pest or weed control at 125 g/ha ([11]; 125 g ai/ha Preemergence) was 80%. For the same molecule, the pest or weed control at 62 g/ha ([11]; Preemergence) was 75%, the “Plant response rating, Waterhemp_RES1” value ([12]; 16 g ai/ha Postemergence) was 90 and the “Plant response rating, Waterhemp_RES1” value ([12]; 31 g ai/ha Postemergence) was 95. The “Plant response rating, Waterhemp_RES1” value ([12]; 62 g ai/ha Postemergence) was 100, the “Plant response rating, Waterhemp_RES1” value ([12]; 125 g ai/ha Postemergence) was 100 and the “Plant response rating, Waterhemp_RES2” value ([13]; 16 g ai/ha Postemergence) was 98. For the same molecule, the “Plant response rating, Waterhemp_RES2” value ([13]; 31 g ai/ha Postemergence) was 100, the “Plant response rating, Waterhemp_RES2” value ([13]; 62 g ai/ha Postemergence) was 100 and the “Plant response rating, Waterhemp_RES2” value ([13]; 125 g ai/ha Postemergence) was 100.
